# Assays:
# [1] = system: mammalian vacuolar-type (H+)-ATPase (from chromaffin granule membranes); assay: mammalian vacuolar-type (H+)-ATPase inhibition, side-by-side test; assay type: biochemical; conditions: chromaffin granule membranes; side-by-side test
# Description: (§1) The inhibitory data were obtained using the same procedures and biological preparations described in Bowman et al., Proc. Natl. Acad. Sci. USA, 85, 7972-7976 (November 1988).
# [2] = system: fungal vacuolar-type (H+)-ATPase (from Neurospora crassa); assay: fungal vacuolar-type (H+)-ATPase inhibition, side-by-side test; assay type: biochemical
# Description: as §1
smiles,measurement,setting,value
"C/C=C/[C@H]1O[C@@](O)([C@@H](C)[C@H](O)[C@H](C)[C@H]2OC(=O)/C(OC)=C/C(C)=C/[C@@H](C)[C@@H](O)[C@@H](CC)[C@@H](O)[C@H](C)C/C(C)=C/C=C/[C@@H]2OC)C[C@@H](O[C@H]2C[C@@H](O)[C@H](OC(N)=O)[C@@H](C)O2)[C@@H]1C [concanamycin A, reference compound]",inhibitory activity against mammalian vacuolar-type (H+)-ATPase,[1],potent inhibitor
same,inhibitory activity against fungal vacuolar-type (H+)-ATPase,[2],potent inhibitor
